Assay results taken from article PMC7274485, “A symbiotic bacterium of shipworms produces a compound with broad spectrum anti-apicomplexan activity” (PLoS Pathogens, 2020).
Entries after “also recorded” stand apart in the source; their conditions may differ. Like-named read-outs stand apart in the source and are kept apart here.

Key:
[1] = tested on: intracellular T. gondii RH strain; assay: Immunofluorescence assay (anti-SAG1) of T. gondii-infected HFF cells; type: cell-based, Toxoplasma gondii; conditions: RH strain in HFF; 60 nM trtE for 24 hours (Fig 2B)
Excerpt: For our initial study, we chose to look for anti-apicomplexan compounds in Teredinibacter turnerae. T. turnerae is a gill symbiotic bacterium common to many species of shipworms. We grew two strains of T. turnerae, T7901 [1] and T7902 [24], in shipworm bacterial media (SBM), pelleted the cells and tested the culture supernatants for activity against T. gondii. We chose T. gondii, a ubiquitous coccidian parasite, as a target parasite because it represents a significant human and animal pathogen, it is easily propagated in vitro and is amenable to genetic manipulation. T. gondii is often used as a model for other, more challenging apicomplexans. […] Parasites were evaluated after 24 hours of treatment by immunofluorescence (IFA) microscopy with rabbit antibody to the T. gondii surface antigen, SAG1 [27]. […]
For all IFAs, the investigator reading the slides and collecting images was blind to the sample treatment. […] 24 hours post treatment, infected cells were fixed with methanol, and parasites detected with rabbit anti-SAG1 antibody for T. gondii or rabbit anti-gp15 for C. parvum as we have described previously. […] This CE11 line is transiently transfected with a plasmid that expresses nanoluciferase from a B. divergens promoter and green fluorescence protein-blasticidin (gfp-bsd) from the selection cassette. […]

Plasmodium falciparum = assay: P. falciparum-infected erythrocyte proliferation, SYBR green incorporation; type: cell-based; conditions: Plasmodium falciparum, Erythrocyte
Excerpt: The maintenance of Plasmodium falciparum cultures and conducting of in vitro inhibitor response assays have been previously described.

[2] = Pilot pharmacokinetic study in lambs; type: in vivo
Excerpt: A full PK/PD study of trtE in mice and lambs has recently been funded, so in the near future we will be able to answer these questions.

Cryptosporidium parvum = assay: Neonatal mouse model of Cryptosporidium parvum infection; type: in vivo, mice; conditions: for Number of parasites in the intestine (histology infection score): 2 mg/kg orally every 12 hours, four doses, 5 days post infection, purification method 1
Description: Of all apicomplexans that infect both humans and domesticated animals, Cryptosporidium is a particular challenge for human and veterinary medicine as there is currently no effective treatment for this parasite. We chose to evaluate the in vivo efficacy of trtE using a neonatal mouse model of C. parvum infection. […] In a preliminary experiment, ten, 8 day old mice were infected with C. parvum and then treated with four doses of 2 mg/kg of trtE (purification method 1) given orally every 12 hours for 2 days. Control mice received DMSO vehicle control. Five days post infection, mice were euthanized and the intestines processed for histology. Infection was scored by visual evaluation of infection intensity throughout the intestine by an investigator blinded to treatment. […] Eight-day-old mice, infected with C. parvum, were treated orally twice daily with trtE at 0.4, 4 or 40 mg/kg beginning two days post-infection and continuing for 2 days. On day 5, mice were euthanized and intestines processed for quantitative PCR to quantify infection.
8-day-old mice were infected with 5x10^4 oocysts by oral gavage. In the initial preliminary experiment using trtE purified by method 1, mice were treated 48 hrs post infection with 2 mg/kg trtE every 12 hours by oral gavage for a total of 4 treatments. Control mice received vehicle control (DMSO diluted in DMEM containing 10% fetal calf serum). Mice were sacrificed 5 days post infection and intestines prepared for histological evaluation. Slides were blinded and the intensity of infection scored in the terminal jejunum, ileum, caecum and colon as previously described. Infection intensity scores for each region were added together to give a total infection score for the animal.
In the second set of experiments, mice were infected and treated as before, with 0.4, 4 or 40 mg/kg of trtE purified using method 2. Control mice received vehicle control in parallel. Mice were sacrificed 5 days post-infection and infection quantified by qPCR as previously described. The experiment was conducted three times.

Compound: CC1CCC=CC=CCCC(O)CC(=O)CC2CCC(C)C3(O2)O[B-]24OC(C(=O)O1)C1(OC(CCC1C)CC(=O)CC(O)CCC=CC=CCCC(C)OC(=O)C3O2)O4 (centres unmarked) [trtE, tartrolon E]
- Effect of purified trtE on intracellular T. gondii (IFA) [1]: inhibited intracellular T. gondii growth
- EC50 (Plasmodium falciparum; Table 1, rounded, read-out: EC50 against P. falciparum (Table 1)): 0.1 nM
- EC50 (Plasmodium falciparum; infected erythrocytes, 72 hours, read-out: EC50 against P. falciparum): 0.105 nM
- Absorption from the intestine ([2]; in vivo): rapidly absorbed from the intestine
- Tolerability in lambs ([2]; pilot study, lambs): tolerated by the animals
- Number of parasites in the intestine (histology infection score) (Cryptosporidium parvum): significantly reduced the number of parasites
- Number of parasites in the intestine (histology infection score) (Cryptosporidium parvum; listed as TrtE): significantly reduced the number of parasites in the intestine
- Reduction of intestinal Cryptosporidium infection (qPCR) (Cryptosporidium parvum; 4 mg/kg orally twice daily for 2 days from two days post-infection, day 5, purification method 2): 85%
- Intestinal Cryptosporidium infection (qPCR) (Cryptosporidium parvum; 40 mg/kg orally twice daily for 2 days from two days post-infection, day 5, purification method 2): nearly eliminated
- Overt signs of toxicity in neonatal mice (discussion) (Cryptosporidium parvum; four doses of 40 mg/kg over two days): did not exhibit overt signs of toxicity
- Overt signs of toxicity in trtE treated neonatal mice (Cryptosporidium parvum; oral doses up to 40 mg/kg twice daily for 2 days): no overt toxicity was observed; also recorded: did not observe overt toxicity; also recorded: no overt signs of toxicity
